Experimental data taken from publication PMC6686156, “Discovery of Sustainable Drugs for Neglected Tropical Diseases: Cashew Nut Shell Liquid (CNSL)‐Based Hybrids Target Mitochondrial Function and ATP Production in Trypanosoma brucei” (Chemmedchem, 2019).

Assays:
L6 mammalian cells = tested on: L6 mammalian cells; design: method as in earlier work; conditions: versus T. b. rhodesiense STIB 900; ref 14a; cited from earlier work
T. b. brucei ISMR1 = assay: In vitro drug susceptibility assay (resazurin), dyskinetoplastic ISMR1 strain; assay type: cell-based, Trypanosoma brucei brucei; conditions: isometamidium-resistant line
Method: (§1) Organisms and culture media: Only bloodstream trypomastigotes of T. b. brucei were used throughout this study. […] Parasites were cultured in vented flasks at 37 °C and 5 % CO2 atmosphere and they were passaged every 3 days. Bloodstream forms of T. congolense savannah‐type strain IL3000 were cultured in basal MEM medium, supplemented by 10 % fresh goat serum, 14 μL of β‐mercaptoethanol, 800 μL of 200 mM glutamine solution, and 10 mL of penicillin/streptomycin solution per liter of medium (pH 7.3).48 T. congolense were cultured in six‐well plates at 34 °C and 5 % CO2.
(§2) In brief, the assays were performed in 96‐well plates with 2×10^5 cells per well for T. b. brucei or 5×10^5 cells per well for T. congolense, in their respective culture media. First, 200 μL of test compounds’ solutions (400 μM, in T. brucei or T. congolense medium as appropriate) was added to the first well of each 12‐well row, from which doubling dilutions were conducted over one row per test compound. […] Fluorescence was detected using a FLUOstar Optima (BMG Labtech, Durham, NC, USA) at wavelength of 540 nm (excitation), 590 nm (emission). EC50 values were calculated by nonlinear regression using an equation for a sigmoidal dose–response curve with variable slope using Prism 5.0 (GraphPad Software Inc., San Diego, CA, USA).

[1] = tested on: T. b. brucei 427WT bloodstream trypomastigotes; assay: microbe, parasite or virus in culture; assay type: cell-based, Trypanosoma brucei brucei; conditions: Trypanosoma brucei, 72 h; bloodstream trypomastigotes; resazurin; 48 h + 24 h; n=4; read-out: EC50 T. b. b. 427WT
Method: as §1, §2

[2] = tested on: T. b. brucei aqp2/aqp3‐KO; assay: microbe, parasite or virus in culture; assay type: cell-based, Trypanosoma brucei brucei
Method: as §1, §2

T. b. brucei B48 = assay: microbe, parasite or virus in culture; assay type: cell-based, Trypanosoma brucei brucei
Method: as §1, §2

[3] = tested on: T. b. rhodesiense (STIB 900 strain); design: method as in earlier work; conditions: different resazurin protocol, ref 14a, read-out: IC50 (called EC50) against T. b. rhodesiense; cited from earlier work
T. congolense IL3000 WT = assay: In vitro drug susceptibility assay (resazurin), T. congolense; assay type: cell-based; conditions: Trypanosoma congolense, bloodstream forms, read-out: EC50 T. c. IL3000 WT
Method: as §1, §2

[4] = tested on: T. b. brucei 427WT bloodstream trypomastigotes; assay: ATP assay on T. b. brucei (luciferin-luciferase); assay type: cell-based, Trypanosoma brucei brucei; conditions: oligomycin 2.0 μg/mL, positive control
Method: (§3) ATP assay on T. b. brucei and HFF cells: Changes in cellular ATP levels due to the exposure of trypanosomes to the test compounds (0.5×EC50) were monitored using the Molecular Probes ATP Determination Kit (A22066, Invitrogen Detection Technologies), based on the luciferin–luciferase bioluminescent enzymatic reaction. Bloodstream trypomastigote cultures of T. brucei s427WT were incubated with and without test compound, and, at each predetermined incubation time, 10^7 cells of each sample were transferred into a microfuge tube and centrifuged at 2000×g for 10 min at 4 °C. The pellet was washed twice with 1 mL of 50 mM Tris⋅HCl (pH 7.4) containing 0.1 mM DTT, and then resuspended in 200 μL of the same buffer. The cells were lysed by sonication on ice (twice for 10 s separated by 30 s), using a Soniprep 150 (MSE) at 8 μm amplitude. The samples were centrifuged at 10 000×g for 10 min at 4 °C and the supernatant was collected, instantly frozen in liquid nitrogen, and stored at −80 °C. Oligomycin (2.0 μg mL^−1) was used as positive control. ATP levels were quantified using the contents of the kit following the manufacturer's instructions; 90 μL of standard reaction solution was added to each well of a 96‐well plate and the background luminescence was recorded in a FLUOstar OPTIMA fluorimeter; 10 μL of each sample was then added to each well. The plate was incubated at 28 °C for 15 min and the luminescence was measured, including a standard curve with an ATP concentration ranging from 1 nM to 1 μM to allow the calculation of the ATP concentrations in each sample. The ATP content was measured at 0, 0.5, 1, 2, 4, 8 and 12 h of incubation with test sample.

HFF cells = assay: ATP assay on HFF cells; assay type: cell-based, human; conditions: 22 at 200 μM, oligomycin 2 μg/mL; 0, 4, 8 h
Method: as §3, with “same buffer. […] ATP levels” for “same buffer. The cells were lysed by sonication on ice (twice for 10 s separated by 30 s), using a Soniprep 150 (MSE) at 8 μm amplitude. The samples were centrifuged at 10 000×g for 10 min at 4 °C and the supernatant was collected, instantly frozen in liquid nitrogen, and stored at −80 °C. Oligomycin (2.0 μg mL^−1) was used as positive control. ATP levels”, “test sample. […]” for “test sample.”

| Structure (SMILES) | selectivity index (SI) with respect to L6 mammalian cells (L6 mammalian cells) | EC50 in ISMR1 relative to 427WT tested in parallel (T. b. brucei ISMR1) | EC50 [1] | EC50 ([2]; Trypanosoma brucei, read-out: EC50 T. b. b. aqp2/aq3‐KO) | RF, resistance factor relative to WT (aqp2/aqp3-KO) ([2]; aqp2/aqp3-KO versus 427WT) | RF, resistance factor relative to WT (B48) (T. b. brucei B48; B48 versus 427WT) | EC50 (T. b. brucei B48; Trypanosoma brucei, read-out: EC50 T. b. b. B48) | IC50 [3] | EC50 (T. congolense IL3000 WT) | effect on ATP levels relative to 20 and 22 [4] | effect on cellular ATP levels of HFF cells (HFF cells) |
| --- | --- | --- | --- | --- | --- | --- | --- | --- | --- | --- | --- |
| O=C1C=C(Oc2ccccc2)C(=O)c2ccccc21 [Compound 4, 2‐phenoxynaphthalene‐1,4‐dione, reference compound] | 74 | did not show a significant increase in the EC50 values | 48.7 ± 0.8 µM | 62.4 ± 0.8 µM | 1.3 | 1.3 | 63 ± 0.4 µM | 0.08 µM | 108 ± 2 µM | – | – |
| CC[C@H]1/C=C/C=C/C[C@@H](C)[C@H](O)[C@@](C)(O)C(=O)[C@@H](C)[C@H](O)[C@@H](C)C(=O)[C@@H](C)[C@H](O)[C@@H](C)/C=C/C(=O)O[C@@H]2[C@H](C)[C@H](CC1)O[C@]1(CC[C@H](C)[C@H](C[C@@H](C)O)O1)[C@H]2C [oligomycin, reference compound] | – | – | – | – | – | – | – | – | – | depressed the ATP levels even further | strong effect even at 4 h |
